These results are taken from US20240409536A1, “COMPOUNDS AND METHODS FOR MODULATING SPLICING” (REMIX THERAPEUTICS INC., priority 2021, published 2024).

The structures appear in SMILES notation. Structures can show the parent of a compound that is named as a salt. Where only a bound is given, the exact number is not on record here.

The test system of one experiment is SMN2 mRNA. As to the kind of experiment: Gene panel canonical junction qPCR assay, SMN2 CJ mRNA decrease. To be noted: Homo sapiens, canonical junction qPCR, read-out: SMN2 IC50 (decrease in CJ mRNA levels). Format: cell-based, human. The gist of the method: (§1)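 IC50 values describe loss of canonical-junction transcript, fitted by 4-parameter logistic to percent response derived from fixed ΔCt windows. Read-out: RT-qPCR on lysates of compound-treated K562 or A673 cells, probes overlapping the exon junction, ΔΔCt versus housekeeping gene and DMSO control.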
For orientation: Quantitative PCR measures a nucleic acid by following its amplification.

The subject of the next experiment is HTT mRNA. As to the kind of experiment: Gene panel canonical junction qPCR assay, HTT CJ mRNA decrease. The experiment is classed as cell-based, human. To be noted: Homo sapiens, canonical junction qPCR, read-out: HTT IC50 (decrease in CJ mRNA levels). In short, it runs like this: as §1
Another experiment has as its system Target C mRNA. As to the kind of experiment: Gene panel canonical junction qPCR assay, Target C CJ mRNA decrease. To be noted: Homo sapiens, canonical junction qPCR, read-out: Target C IC50 (decrease in CJ mRNA levels). The experiment is classed as cell-based. In short, it runs like this: as §1
Another experiment relates to HiBiT-tagged MYB protein. As to the kind of experiment: HiBiT protein abundance assay, MYB (K562 HiBiT knock-in cells). To be noted: 24 hours. The experiment is classed as cell-based, human. In short, it runs like this:
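Luminescent readout of HiBiT-tagged endogenous protein after lysis, following 24 h compound exposure of knock-in K562 lines at 37 °C. Ten 3-fold concentrations from 10 μM final, DMSO ≤0.25%. Four-parameter logistic fit of normalized response gives concentration halving abundance (IC50).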
A general note: HiBiT is a short tag that completes a luciferase, so light tracks the accessible tagged protein.

A further experiment has as its system MYB mRNA. As to the kind of experiment: Gene panel canonical junction qPCR assay, MYB CJ mRNA decrease. The experiment is classed as cell-based, human. To be noted: Homo sapiens, canonical junction qPCR, read-out: MYB IC50 (decrease in CJ mRNA levels). In short, it runs like this: as §1

Broadly, the IC50 is the concentration needed to halve the response being measured. On to `Cc1cn2cc(NC(=O)c3ccc(N4CCC5(CCN5)CC4)c4nccnc34)cc(F)c2n1` [Compound 189, 8-{1,7-diazaspiro[3.5]nonan-7-yl}-N-{8-fluoro-2-methylimidazo[1,2-a]pyridin-6-yl}quinoxaline-5-carboxamide], for which the IC50 in the experiment on SMN2 mRNA was less than 100 nM; with HTT mRNA it was 100 to 1000 nM; in the experiment with Target C mRNA it was 1 to 10 µM; in the experiment on HiBiT-tagged MYB protein, less than 100 nM; in the experiment with MYB mRNA it was less than 100 nM.
With `CNC1CCN(c2ccc(C(=O)Nc3cc(F)c4nc(C)cn4c3)c3nccnc23)C1` (stereo not drawn) [Compound 190, N-{8-fluoro-2-methylimidazo[1,2-a]pyridin-6-yl}-8-[3-(methylamino)pyrrolidin-1-yl]quinoxaline-5-carboxamide], the 50% inhibitory concentration (IC50) in the experiment on SMN2 mRNA is less than 100 nM; with HTT mRNA it was 1000 to 10000 nM; with Target C mRNA, 1 to 10 µM; in the experiment on HiBiT-tagged MYB protein, 100 to 1000 nM; with MYB mRNA, 100 to 1000 nM.
In the case of `CCNC1CCN(c2ccc(C(=O)Nc3cc(F)c4nc(C)cn4c3)c3nccnc23)CC1` [Compound 191, 8-[4-(ethylamino)piperidin-1-yl]-N-{8-fluoro-2-methylimidazo[1,2-a]pyridin-6-yl}quinoxaline-5-carboxamide], the IC50 in the experiment with SMN2 mRNA is less than 100 nM; in the experiment on HTT mRNA, 100 to 1000 nM; with Target C mRNA, greater than 10 µM; in the experiment on HiBiT-tagged MYB protein it was less than 100 nM; in the experiment with MYB mRNA, less than 100 nM.
As for `CNCC1CCN(c2ccc(C(=O)Nc3cc(F)c4nc(C)cn4c3)c3nccnc23)CC1` [Compound 192, N-{8-fluoro-2-methylimidazo[1,2-a]pyridin-6-yl}-8-{4-[(methylamino)methyl]piperidin-1-yl}quinoxaline-5-carboxamide trifluoroacetate], the IC50 in the experiment with SMN2 mRNA fell in the range of 100 to 1000 nM; in the experiment on HTT mRNA, 1000 to 10000 nM; in the experiment with Target C mRNA it was 1 to 10 µM; with HiBiT-tagged MYB protein, 1000 to 10000 nM; in the experiment on MYB mRNA, 1000 to 10000 nM.
Take `CNC1CCN(c2ccc(C(=O)Nc3cc(F)c4nc(C)cn4c3)c3nc(C)ccc23)C1` (stereo not drawn) [Compound 196, N-{8-fluoro-2-methylimidazo[1,2-a]pyridin-6-yl}-2-methyl-5-[3-(methylamino)pyrrolidin-1-yl]quinoline-8-carboxamide 2,2,2-trifluoroacetate]: the IC50 in the experiment on SMN2 mRNA was less than 100 nM; in the experiment on HTT mRNA, 1000 to 10000 nM; in the experiment on Target C mRNA, 1 to 10 µM; with HiBiT-tagged MYB protein, less than 100 nM; with MYB mRNA it was 100 to 1000 nM.
In the case of `Cc1cnc2c(N3CCNCC3)ccc(C(=O)Nc3cc(F)c4nc(C)cn4c3)c2n1` [Compound 197, N-{8-fluoro-2-methylimidazo[1,2-a]pyridin-6-yl}-3-methyl-8-(piperazin-1-yl)quinoxaline-5-carboxamide; trifluoroacetic acid], the half-maximal inhibitory concentration (IC50) in the experiment on SMN2 mRNA was less than 100 nM; in the experiment with HTT mRNA it was 1000 to 10000 nM; in the experiment with Target C mRNA, greater than 10 µM; in the experiment on HiBiT-tagged MYB protein, less than 100 nM; with MYB mRNA, 100 to 1000 nM.
With `COCCOc1cc2c(N3CCNCC3)ccc(C(=O)Nc3cc(F)c4nc(C)cn4c3)c2nn1` [Compound 199, N-{8-fluoro-2-methylimidazo[1,2-a]pyridin-6-yl}-3-(2-methoxyethoxy)-5-(piperazin-1-yl)cinnoline-8-carboxamide], the IC50 with SMN2 mRNA was less than 100 nM; in the experiment on HTT mRNA, greater than 10000 nM; in the experiment with Target C mRNA, greater than 10 µM; in the experiment on HiBiT-tagged MYB protein, less than 100 nM; with MYB mRNA, 100 to 1000 nM.
Regarding `Cc1cnc2c(N3CCC(N(C)C)CC3)ccc(C(=O)Nc3cc(F)c4nc(C)cn4c3)c2n1` [Compound 200, 8-[4-(dimethylamino)piperidin-1-yl]-N-{8-fluoro-2-methylimidazo[1,2-a]pyridin-6-yl}-3-methylquinoxaline-5-carboxamide], the IC50 in the experiment on SMN2 mRNA was less than 100 nM; in the experiment with HTT mRNA, 100 to 1000 nM; with Target C mRNA it was 0.1 to 1 µM; in the experiment with HiBiT-tagged MYB protein it was less than 100 nM; in the experiment with MYB mRNA, less than 100 nM.
As to `CN[C@@H]1CCN(c2ccc(C(=O)Nc3cc(F)c4nc(C)cn4c3)c3nc(OC)cnc23)C1` [Compound 204, (R)—N-{8-fluoro-2-methylimidazo[1,2-a]pyridin-6-yl}-3-methoxy-8-[3-(methylamino)pyrrolidin-1-yl]quinoxaline-5-carboxamide; trifluoroacetic acid], the 50% inhibitory concentration (IC50) was less than 100 nM with SMN2 mRNA; greater than 10000 nM with HTT mRNA; greater than 10 µM in the experiment on Target C mRNA; 100 to 1000 nM in the experiment with HiBiT-tagged MYB protein; 1000 to 10000 nM with MYB mRNA.
Take `COc1cnc2c(N3C[C@@H](C)N[C@@H](C)C3)ccc(C(=O)Nc3cc(F)c4nc(C)cn4c3)c2n1` [Compound 205, 8-[(3R,5S)-3,5-dimethylpiperazin-1-yl]-N-{8-fluoro-2-methylimidazo[1,2-a]pyridin-6-yl}-3-methoxyquinoxaline-5-carboxamide; trifluoroacetic acid]: the IC50 in the experiment on SMN2 mRNA is less than 100 nM; with HTT mRNA, 100 to 1000 nM; with Target C mRNA it was 0.1 to 1 µM; with HiBiT-tagged MYB protein it was less than 100 nM; in the experiment on MYB mRNA, less than 100 nM.
As to `COc1cnc2c(N3CCC(N(C)C)CC3)ccc(C(=O)Nc3cc(F)c4nc(C)cn4c3)c2n1` [Compound 206, 8-[4-(dimethylamino)piperidin-1-yl]-N-{8-fluoro-2-methylimidazo[1,2-a]pyridin-6-yl}-3-methoxyquinoxaline-5-carboxamide; trifluoroacetic acid], the IC50 in the experiment with SMN2 mRNA is less than 100 nM; in the experiment on HTT mRNA, 100 to 1000 nM; in the experiment on Target C mRNA, 0.1 to 1 µM; with HiBiT-tagged MYB protein, less than 100 nM; in the experiment with MYB mRNA, 100 to 1000 nM.
Regarding `COc1cnc2c(N3CCNCC3)ccc(C(=O)Nc3cc(F)c4nc(C)cn4c3)c2n1` [Compound 207, N-{8-fluoro-2-methylimidazo[1,2-a]pyridin-6-yl}-3-methoxy-8-(piperazin-1-yl)quinoxaline-5-carboxamide; bis(trifluoroacetic acid)], the IC50 in the experiment with SMN2 mRNA was less than 100 nM; with HTT mRNA, 100 to 1000 nM; in the experiment with Target C mRNA it was greater than 10 µM; in the experiment with HiBiT-tagged MYB protein, less than 100 nM; in the experiment with MYB mRNA, less than 100 nM.
Take `Cc1cnc2c(C(=O)Nc3cc(F)c4nc(C)cn4c3)ccc(N3CCC(N(C)C)CC3)c2n1` [Compound 208, 8-[4-(dimethylamino)piperidin-1-yl]-N-{8-fluoro-2-methylimidazo[1,2-a]pyridin-6-yl}-2-methylquinoxaline-5-carboxamide; bis(trifluoroacetic acid)]: the concentration for half-maximal inhibition (IC50) is less than 100 nM in the experiment with SMN2 mRNA; 1000 to 10000 nM in the experiment on HTT mRNA; greater than 10 µM in the experiment with Target C mRNA; less than 100 nM in the experiment on HiBiT-tagged MYB protein; less than 100 nM in the experiment on MYB mRNA.
For `Cc1ccc2c(N3C[C@@H](C)N[C@@H](C)C3)ccc(C(=O)Nc3cc(F)c4nc(C)cn4c3)c2n1` [Compound 214, 5-[(3R,5S)-3,5-dimethylpiperazin-1-yl]-N-{8-fluoro-2-methylimidazo[1,2-a]pyridin-6-yl}-2-methylquinoline-8-carboxamide], the IC50 in the experiment with SMN2 mRNA was less than 100 nM; in the experiment on HTT mRNA, 100 to 1000 nM; in the experiment on Target C mRNA, 1 to 10 µM; with HiBiT-tagged MYB protein, less than 100 nM; in the experiment with MYB mRNA, less than 100 nM.
As to `Cc1ccc2c(N3CCC(N(C)C)CC3)ccc(C(=O)Nc3cc(F)c4nc(C)cn4c3)c2n1` [Compound 215, 5-[4-(dimethylamino)piperidin-1-yl]-N-{8-fluoro-2-methylimidazo[1,2-a]pyridin-6-yl}-2-methylquinoline-8-carboxamide], the half-inhibitory concentration (IC50) in the experiment with SMN2 mRNA is less than 100 nM; in the experiment with HTT mRNA, 100 to 1000 nM; in the experiment with Target C mRNA it was 1 to 10 µM; in the experiment with HiBiT-tagged MYB protein, less than 100 nM; in the experiment on MYB mRNA it was 100 to 1000 nM.
